According to patent US11786534B2 (TAIHO PHARMACEUTICAL CO., LTD., priority 2019, dated 2023):
Like-named read-outs stand apart in the source and are kept apart here.

Legend:
[1] = biological target: T1, human EGFR (d746-750/T790M/C797S) (Homo sapiens, UniProt P00533, C797S/DEL746-750/T790M); assay: Inhibitory activity against EGFR (d746-750/T790M/C797S) kinase; format: biochemical
T1 construct: made in house; host or cells: Sf9 insect cells, baculovirus
Procedure, shortened: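 GST-fused cytoplasmic domain of human EGFR d746-750/T790M/C797S (Sf9-expressed) was incubated with 250 nM biotinylated peptide, 6 μM ATP, 10 mM MgCl2 and 10 mM MnCl2 (2.5% DMSO) for 120 min at 25 °C. After an EDTA stop, phosphotyrosine was detected by Eu-PT66/SureLight APC-SA TR-FRET (665/620 nm, excitation 337 nm). Background wells received EDTA before enzyme.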

[2] = biological target: Ba/F3-EGFR (L858R/T790M/C797S) (Homo sapiens, UniProt P00533, T790M/C797S/L858R, cells depend on it); assay: Growth inhibition of cell line expressing EGFR (L858R/T790M/C797S); format: cell-based, mouse; details: read-out: BaF3_EGFR (L858R/T790M/C797S) IC50 value
Text: (§1) Test for inhibitory activity against the growth of cell lines expressing wild-type and mutated EGFRs (in vitro)
(§2) (1) Mouse cell line Ba/F3-EGFR (d746-750/T790M/C797S) transfected with and stably expressing EGFR (d746-750/T790M/C797S), mouse cell Ba/F3-EGFR (L858R/T790M/C797S) transfected with and stably expressing EGFR (L858R/T790M/C797S), and mouse cell line Ba/F3-EGFR (WT) transfected with and stably expressing wild-type EGFR were each suspended in RPMI-1640 cell culture medium (RPMI-1640, 10% FBS, 100 unit/ml penicillin, 0.1 mg/ml streptomycin). In the case of the mouse cell line Ba/F3-EGFR (WT), RPMI-1640 cell culture medium containing EGF at a final concentration of 50 ng/ml was used to suspend this cell line. It should be noted that the mouse cell line Ba/F3-EGFR (d746-750/T790M/C797S) transfected with and stably expressing EGFR (d746-750/T790M/C797S), the mouse cell line Ba/F3-EGFR (L858R/T790M/C797S) transfected with and stably expressing EGFR (L858R/T790M/C797S) and the mouse cell line Ba/F3-EGFR (WT) transfected with and stably expressing wild-type EGFR were prepared by using nucleotide sequences encoding the proteins of SEQ ID NOs: 1 and 2 in accordance with Test Example 1 in WO2018/079310, These cell suspensions were seeded in wells of 96-well flat -bottomed plates. The compounds of the present invention were dissolved in DMSO, and serial dilutions of these test compounds were prepared with DMSO (1000-fold of the final concentration). Each test compound solution in DMSO or DMSO alone was diluted with RPMI-1640 cell culture medium for each cell line, and this dilution was added to wells of the cell culture plate such that the final concentration of DMSO was 0.1%, followed by culture at 37° C. for 3 days in a 5% carbon dioxide gas-containing incubator. Before and after addition of each test compound solution in DMSO, the number of cells was counted using the CellTiter-Glo® system (Promega) on the basis of the protocol recommended by Promega.
(§3) In each cell line, the rate of cell growth inhibition was calculated according to the equation shown below in wells to which each test compound was added at different concentrations. Moreover, the inhibition rate at each concentration was plotted for each test compound, and the concentration of each test compound required to give 50% cell survival rate, i.e., IC50 (nM) was determined by curve fitting software XLfit (IDBS).
(§4) Cell survival rate (%)=T/C×100
(§5) T: emission intensity in a well cultured for 3 days after addition of a test compound solution
(§6) C: emission intensity in a well cultured for 3 days after addition of DMSO
(§7) In accordance with the same procedures as shown in Test Example 2, the compounds of the present invention were tested for their inhibitory activity against the growth of the cell hoes expressing wild-type and mutated EGFRs.

[3] = biological target: Ba/F3-EGFR (WT) (Homo sapiens, UniProt P00533); assay: Growth inhibition of cell line expressing wild-type EGFR; format: cell-based, mouse; details: read-out: BaF3_EGFR (WT) IC50 value
Text: as §1, §2, §3, §4, §5, §6, §7

[4] = Test Example 4, Table 13, same procedures as Test Example 2
[5] = Test Example 1, Table 2, ATP 6 μM, 25° C., 120 minutes
[6] = Test Example 2, Table 7, culture 3 days, CellTiter-Glo
[7] = Test Example 2, Table 7, culture 3 days, EGF 50 ng/ml, CellTiter-Glo

T1 sequence (P00533 with tags, fused parts or gaps DEL746-750/T790M/C797S): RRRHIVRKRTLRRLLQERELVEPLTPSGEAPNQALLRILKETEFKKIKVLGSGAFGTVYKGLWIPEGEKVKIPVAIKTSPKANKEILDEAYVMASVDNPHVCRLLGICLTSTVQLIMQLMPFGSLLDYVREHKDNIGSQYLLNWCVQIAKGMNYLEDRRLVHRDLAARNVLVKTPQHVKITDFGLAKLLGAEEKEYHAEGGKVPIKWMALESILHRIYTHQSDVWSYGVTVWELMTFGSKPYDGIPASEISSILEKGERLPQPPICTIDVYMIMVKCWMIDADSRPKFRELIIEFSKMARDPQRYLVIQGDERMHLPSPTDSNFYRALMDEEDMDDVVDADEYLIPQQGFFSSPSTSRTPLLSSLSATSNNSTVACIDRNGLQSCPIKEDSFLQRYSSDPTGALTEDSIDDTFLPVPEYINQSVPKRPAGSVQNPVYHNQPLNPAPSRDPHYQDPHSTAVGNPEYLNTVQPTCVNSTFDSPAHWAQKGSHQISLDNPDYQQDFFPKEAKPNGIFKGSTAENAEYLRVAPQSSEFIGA
Sequence of Ba/F3-EGFR (WT) (P00533 whole entry, change not shown): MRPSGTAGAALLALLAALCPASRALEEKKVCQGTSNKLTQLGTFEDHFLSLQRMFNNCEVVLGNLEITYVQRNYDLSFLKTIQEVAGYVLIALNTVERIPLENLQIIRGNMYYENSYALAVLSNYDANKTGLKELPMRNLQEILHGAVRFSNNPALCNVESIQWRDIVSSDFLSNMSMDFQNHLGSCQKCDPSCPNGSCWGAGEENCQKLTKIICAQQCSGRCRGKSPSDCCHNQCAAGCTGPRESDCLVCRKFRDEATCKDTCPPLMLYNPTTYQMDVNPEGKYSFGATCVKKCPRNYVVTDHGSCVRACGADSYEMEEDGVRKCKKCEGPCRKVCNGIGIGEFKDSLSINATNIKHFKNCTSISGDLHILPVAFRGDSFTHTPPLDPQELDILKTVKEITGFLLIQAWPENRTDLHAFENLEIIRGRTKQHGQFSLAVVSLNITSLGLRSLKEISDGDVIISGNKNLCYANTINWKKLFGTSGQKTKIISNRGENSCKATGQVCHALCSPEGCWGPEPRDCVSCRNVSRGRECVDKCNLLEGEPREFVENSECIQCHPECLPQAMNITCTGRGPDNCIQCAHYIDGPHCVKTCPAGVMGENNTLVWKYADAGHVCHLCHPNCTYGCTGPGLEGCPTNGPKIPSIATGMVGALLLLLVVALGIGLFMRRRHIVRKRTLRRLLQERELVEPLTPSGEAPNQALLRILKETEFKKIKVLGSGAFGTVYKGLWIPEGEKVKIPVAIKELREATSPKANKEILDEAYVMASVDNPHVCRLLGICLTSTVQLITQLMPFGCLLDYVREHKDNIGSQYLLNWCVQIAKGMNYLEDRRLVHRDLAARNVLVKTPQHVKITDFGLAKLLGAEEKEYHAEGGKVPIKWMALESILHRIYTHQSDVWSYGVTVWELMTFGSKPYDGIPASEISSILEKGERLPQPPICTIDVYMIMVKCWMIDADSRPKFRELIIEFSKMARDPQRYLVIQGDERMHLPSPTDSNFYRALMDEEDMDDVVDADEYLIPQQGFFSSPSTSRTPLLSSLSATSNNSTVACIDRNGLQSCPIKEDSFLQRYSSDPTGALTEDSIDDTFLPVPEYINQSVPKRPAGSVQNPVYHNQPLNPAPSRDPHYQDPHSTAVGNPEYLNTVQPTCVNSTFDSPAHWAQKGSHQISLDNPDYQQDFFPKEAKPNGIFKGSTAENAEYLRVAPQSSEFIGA
Sequence of Ba/F3-EGFR (L858R/T790M/C797S) (P00533 whole entry T790M/C797S/L858R): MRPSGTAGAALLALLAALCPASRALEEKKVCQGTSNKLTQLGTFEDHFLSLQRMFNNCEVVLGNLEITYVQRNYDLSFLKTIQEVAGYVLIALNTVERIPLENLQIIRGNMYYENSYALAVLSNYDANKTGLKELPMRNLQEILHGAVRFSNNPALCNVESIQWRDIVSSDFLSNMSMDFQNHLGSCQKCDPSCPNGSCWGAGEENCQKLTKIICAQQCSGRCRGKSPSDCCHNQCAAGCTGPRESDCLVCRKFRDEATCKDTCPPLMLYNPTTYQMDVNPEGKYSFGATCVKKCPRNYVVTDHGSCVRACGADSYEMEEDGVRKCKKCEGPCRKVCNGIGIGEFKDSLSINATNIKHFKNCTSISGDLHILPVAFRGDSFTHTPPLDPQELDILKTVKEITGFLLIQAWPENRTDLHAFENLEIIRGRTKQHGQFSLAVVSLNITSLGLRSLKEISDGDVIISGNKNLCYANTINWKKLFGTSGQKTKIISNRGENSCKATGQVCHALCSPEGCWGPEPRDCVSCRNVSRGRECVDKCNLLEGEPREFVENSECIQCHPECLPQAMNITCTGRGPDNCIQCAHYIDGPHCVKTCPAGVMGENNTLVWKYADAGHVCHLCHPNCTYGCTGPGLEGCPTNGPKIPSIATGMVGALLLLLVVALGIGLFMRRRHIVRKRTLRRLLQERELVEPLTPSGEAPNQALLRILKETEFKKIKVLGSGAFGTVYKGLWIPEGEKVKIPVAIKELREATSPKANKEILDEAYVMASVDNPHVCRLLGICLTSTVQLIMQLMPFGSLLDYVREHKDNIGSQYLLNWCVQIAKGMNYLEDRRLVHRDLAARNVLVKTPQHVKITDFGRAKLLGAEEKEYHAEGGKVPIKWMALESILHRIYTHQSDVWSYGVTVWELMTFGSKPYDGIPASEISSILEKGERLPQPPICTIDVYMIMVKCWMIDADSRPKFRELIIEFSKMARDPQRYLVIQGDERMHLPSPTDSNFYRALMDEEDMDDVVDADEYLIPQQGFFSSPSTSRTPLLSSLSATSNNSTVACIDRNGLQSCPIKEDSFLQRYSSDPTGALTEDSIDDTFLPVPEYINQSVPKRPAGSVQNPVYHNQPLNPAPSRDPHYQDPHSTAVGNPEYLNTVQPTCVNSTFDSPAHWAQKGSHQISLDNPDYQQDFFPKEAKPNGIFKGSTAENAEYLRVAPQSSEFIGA

Row | SMILES | IC50 ([1]; Test Example 3, Table 8; same procedures as 1) in Test Example 1) | GI50 [2, 4] | GI50 [3, 4] | IC50 [1, 5] | GI50 [2, 6] | GI50 [3, 7]
1 | C#Cc1c(-c2cnc3ccccc3c2)c2c(N)ncnc2n1C12CCC(NC(=O)[C@@H]3CN(C)CCO3)(CC1)C2 [Example 63, (S)-N-(4-(4-Amino-6-ethynyl-5-(quinolin-3-yl)-7H-pyrrolo[2,3-d]pyrimidin-7-yl) -bicyclo[2.2.1]heptan-1-yl)-4-methylmorpholine-2-carboxamide] | < 0.3 nM | 672 nM | 2990 nM | – | – | –
2 | C#Cc1c(-c2cnc3ccccc3c2)c2c(N)ncnc2n1C12CCC(NC(=O)c3cnc(C)cn3)(CC1)C2 [Example 37, N-(4-(4-Amino-6-ethynyl-5-(quinolin-3-yl)-7H-pyrrolo[2,3-d]pyrimidin-7-yl)-bicyclo-[2.2.1]heptan-1-yl)-5-methylpyrazine-2-carboxamide] | – | – | – | < 0.3 nM | 270 nM | 2970 nM
3 | C#Cc1c(-c2cnc3ccccc3c2)c2c(N)ncnc2n1C12CCC(NC(=O)c3ncco3)(CC1)C2 [Example 46] | – | – | – | < 0.3 nM | 204 nM | 2410 nM
4 | C#Cc1c(-c2cnc3ccccc3c2)c2c(N)ncnc2n1C12CCC(NC(=O)c3ccnn3C3CC3)(CC1)C2 [Example 20, N-(4-(4-Amino-6-ethynyl-5-(quinolin-3-yl)-7H-pyrrolo[2,3-d]pyrimidin-7-yl)bicyclo-[2.2.1]heptan-1-yl)-1-cyclopropyl-1H-pyrazole-5-carboxamide] | – | 245 nM | 2650 nM | < 0.3 nM | – | –
5 | C#Cc1c(-c2cnc3ccccc3c2)c2c(N)ncnc2n1C12CCC(NC(=O)C(F)F)(CC1)C2 [Example 27, N-(4-(4-Amino-6-ethynyl-5-(quinolin-3-yl)-7H-pyrrolo[2,3-d]pyrimidin-7-yl)bicyclo-[2.2.1]heptan-1-yl)-2,2-difluoroacetamide] | – | 754 nM | > 2000 nM | < 0.3 nM | – | –
6 | C#Cc1c(-c2cnc3ccccc3c2)c2c(N)ncnc2n1C12CCC(NC(=O)c3ccnnc3)(CC1)C2 [Example 3, N-(4-(4-Amino-6-ethynyl-5-(quinolin-3-yl)-7H-pyrrolo[2,3-d]pyrimidin-7-yl)bicyclo-[2.2.1]heptan-1-yl)pyridazine-4-carboxamide] | – | – | – | < 0.3 nM | 529 nM | 3330 nM
7 | C#Cc1c(-c2cnc3ccccc3c2)c2c(N)ncnc2n1C12CCC(NC(=O)c3cncnc3)(CC1)C2 [Example 2, N-(4-(4-Amino-6-ethynyl-5-(quinolin-3-yl)-7H-pyrrolo[2,3-d]pyrimidin-7-yl)bicyclo-[2.2.1]heptan-1-yl)pyrimidine-5-carboxamide] | – | – | – | < 0.3 nM | 185 nM | 2650 nM
8 | C#Cc1c(-c2cnc3ccccc3c2)c2c(N)ncnc2n1C12CCC(NC(=O)c3ccco3)(CC1)C2 [Example 41] | – | 843 nM | 3240 nM | < 0.3 nM | – | –
9 | C#Cc1c(-c2cnc3ccccc3c2)c2c(N)ncnc2n1C12CCC(NC(=O)c3ccncc3)(CC1)C2 [Example 43] | – | – | – | < 0.3 nM | 417 nM | 3290 nM
10 | C#Cc1c(-c2cnc3ccccc3c2)c2c(N)ncnc2n1C12CCC(NC(=O)c3ccnn3C)(CC1)C2 [Example 24, N-(4-(4-Amino-6-ethynyl-5-(quinolin-3-yl)-7H-pyrrolo[2,3-d]pyrimidin-7-yl)bicyclo-[2.2.1]heptan-1-yl)-1-methyl-1H-pyrazole-5-carboxamide] | – | – | – | < 0.3 nM | 403 nM | 3790 nM
11 | C#Cc1c(-c2cnc3ccccc3c2)c2c(N)ncnc2n1C12CCC(NC(=O)c3cncc(F)c3)(CC1)C2 [Example 35, N-(4-(4-Amino-6-ethynyl-5-(quinolin-3-yl)-7H-pyrrolo[2,3-d]pyrimidin-7-yl)-bicyclo-[2.2.1]heptan-1-yl)-5-fluoronicotinamide] | – | 348 nM | 2960 nM | < 0.3 nM | – | –
12 | C=CC(=O)N1CC[C@@H](n2cc(-c3cnc4ccccc4c3)c3c(N)ncnc32)C1 [Comparative Example A, (R)-1-(3(4-Amino-5-(quinolin-3-yl)-7H-pyrrolo[2,3-d]pyrimidin-7-yl)pyrrolidin-1-yl) -prop-2-en-1-one, reference compound] | – | – | – | 142 nM | 2260 nM | 2460 nM
13 | C#Cc1c(-c2cnc3ccccc3c2)c2c(N)ncnc2n1C12CCC(NC(=O)c3nccs3)(CC1)C2 [Example 53] | – | 978 nM | 3290 nM | < 0.3 nM | – | –
14 | C#Cc1c(-c2cnc3ccccc3c2)c2c(N)ncnc2n1C12CCC(CNC(=O)c3ccnn3C)(CC1)C2 [Example 13, N-((4-(4-Amino-6-ethynyl-5-(quinolin-3-yl)-7H-pyrrolo[2,3-d]pyrimidin-7-yl)bicyclo-[2.2.1]heptan-1-yl)methyl)-1-methyl-1H-pyrazole-5-carboxamide] | – | – | – | < 0.3 nM | 910 nM | 3600 nM
15 | C#Cc1c(-c2cnc3ccccc3c2)c2c(N)ncnc2n1C12CCC(CNC(=O)c3cnc(C)cn3)(CC1)C2 [Example 14, N-((4-(4-Amino-6-ethynyl-5-(quinolin-3-yl)-7H-pyrrolo[2,3-d]pyrimidin-7-yl)bicyclo-[2.2.1]heptan-1-yl)methyl)-5-methylpyrazine-2-carboxamide] | – | – | – | < 0.3 nM | 952 nM | 3500 nM
16 | C#Cc1c(-c2cnc3ccccc3c2)c2c(N)ncnc2n1C12CCC(NC(=O)c3ccccc3)(CC1)C2 [Example 1, N-(4-(4-Amino-6-ethynyl-5-(quinolin-3-yl)-7H-pyrrolo[2,3-d]pyrimidin-7-yl)bicyclo-[2.2.1]heptan-1-yl)benzamide] | – | 887 nM | 3490 nM | < 0.3 nM | – | –
17 | C#Cc1c(-c2cnc3ccccc3c2)c2c(N)ncnc2n1C12CCC(NC(=O)c3cnns3)(CC1)C2 [Example 18, N-(4-(4-Amino-6-ethynyl-5-(quinolin-3-yl)-7H-pyrrolo[2,3-d]pyrimidin-7-yl)bicyclo-[2.2.1]heptan-1-yl)-1,2,3-thiadiazole-5-carboxamide] | – | 1270 nM | 2480 nM | < 0.3 nM | – | –
18 | C#Cc1c(-c2cnc3ccccc3c2)c2c(N)ncnc2n1C12CCC(NC(=O)c3ccno3)(CC1)C2 [Example 44] | – | 268 nM | 2260 nM | < 0.3 nM | – | –
19 | C#Cc1c(-c2cnc3ccccc3c2)c2c(N)ncnc2n1C12CCC(NC(=O)c3ccc4ncnn4c3)(CC1)C2 [Example 16, N-(4-(4-Amino-6-ethynyl-5-(quinolin-3-yl)-7H-pyrrolo[2,3-d]pyrimidin-7-yl)bicyclo-[2.2.1]heptan-1-yl)-[1.2.4]triazolo[1,5-a]pyrimidin-6-carboxamide] | – | 283 nM | 1920 nM | < 0.3 nM | – | –
20 | C#Cc1c(-c2cnc3ccccc3c2)c2c(N)ncnc2n1C12CCC(NC(=O)c3cccnc3)(CC1)C2 [Example 45] | – | – | – | < 0.3 nM | 305 nM | 3400 nM
21 | C#Cc1c(-c2cnc3ccccc3c2)c2c(N)ncnc2n1C12CCC(N3CCOCC3)(CC1)C2 [Example 9, 6-Ethynyl-7-(4-morpholinobicyclo[2.2.1]heptan-1-yl)-5-(quinolin-3-yl)-7H-pyrrolo[2,3-d]pyrimidine-4-amine] | – | 592 nM | > 2000 nM | < 0.3 nM | – | –
